Patent publication US11938121B2, “Treatment of infections and biofilm formation using a cellulose synthase inhibitor” (Purdue Research Foundation, priority 2020, dated 2024)
Like-named read-outs stand apart in the source and are kept apart here.

Tests used:
[1] = tested on: AtCESA6 (cesa6 alleles es20r1-es20r15); assay: Root growth of EMS-induced cesa6 mutants es20r1-es20r15 on ES20 analogs; format: in vivo, Arabidopsis thaliana; details: compared with wild-type/control plants
Source text: A subset of active ES20 analogs likely target the catalytic domain of AtCESA6. […] Since ES20 and the nine active ES20 analogs share highly similar structures, we reasoned whether these active analogs target AtCESA6 as well. We therefore examined the growth of es20r1-es20r15 plants in the presence of nine active ES20 analogs compared to wild-type plants.
(§1) To test the inhibitory effects of different chemicals on plant growth, wild-type Arabidopsis Col-0 plants were used. The seeds of plants used for growth assays or live cell imaging were sequentially sterilized with 50% bleach and 75% ethanol. […] To quantify the inhibitory effects of different ES20 active analogs on the root growth of Arabidopsis wildtype, EMS mutants, and transgenic plants expressing mutated AtCESA6 in prc1-1 background, sterilized Col-0, mutants, and transgenic plants seeds were sown on gridded Petri plates containing ½-strength MS medium supplemented with different concentrations of ES20 analogs. […] The plates were scanned using an Epson Perfection V550 scanner after 7 days of growth, and the root lengths of plants were quantified using ImageJ software. […] The Petri dishes were scanned, and hypocotyl length was measured using ImageJ. Transgenic plants expressing fluorescence-tagged PIN2, PIP2a, HDEL, VHA-a1, and GOT1p were as reported previously (Xu and Scheres, Plant Cell, 2005, 17, 525-536).

[2] = tested on: AtCESA6 carrying missense mutations in prc1-1; assay: Root growth of transgenic plants expressing mutated AtCESA6 in prc1-1; format: in vivo, Arabidopsis thaliana; details: D562N, D564N, D785N, Q823E, R826A, W827A in prc1-1
Source text: We then examined whether transgenic plants expressing AtCESA6 with predicted missense mutations at the catalytic site in prc1-1 background would have altered sensitivity to active ES20 analogs. […] However, the responses of two transgenic lines expressing AtCESA6 carrying missense mutations outside of the catalytic site (L365F and D395N) to nine active ES20 analogs were similar to those of wild-type plants (FIG. 2B).
as §1, with “Transgenic plants expressing fluorescence-tagged PIN2, PIP2a, HDEL, VHA-a1, and GOT1p were as reported previously (Xu and Scheres, Plant Cell, 2005, 17, 525-536).” left out

[3] = target: T1, GFP-CESA6c: GFP-tagged central cytosolic domain of AtCESA6 (cellulose synthase, CESA6) with a His-SUMO tag (Arabidopsis thaliana, UniProt Q94JQ6); assay: Microscale thermophoresis (MST) binding to purified GFP-tagged CESA6c (wild-type); details: read-out: Kd, thermophoresis binding curve, GFP-CESA6c
T1 construct: His-SUMO; made in house; host or cells: E. coli
T1 sequence (Q94JQ6 322-868 limits assumed): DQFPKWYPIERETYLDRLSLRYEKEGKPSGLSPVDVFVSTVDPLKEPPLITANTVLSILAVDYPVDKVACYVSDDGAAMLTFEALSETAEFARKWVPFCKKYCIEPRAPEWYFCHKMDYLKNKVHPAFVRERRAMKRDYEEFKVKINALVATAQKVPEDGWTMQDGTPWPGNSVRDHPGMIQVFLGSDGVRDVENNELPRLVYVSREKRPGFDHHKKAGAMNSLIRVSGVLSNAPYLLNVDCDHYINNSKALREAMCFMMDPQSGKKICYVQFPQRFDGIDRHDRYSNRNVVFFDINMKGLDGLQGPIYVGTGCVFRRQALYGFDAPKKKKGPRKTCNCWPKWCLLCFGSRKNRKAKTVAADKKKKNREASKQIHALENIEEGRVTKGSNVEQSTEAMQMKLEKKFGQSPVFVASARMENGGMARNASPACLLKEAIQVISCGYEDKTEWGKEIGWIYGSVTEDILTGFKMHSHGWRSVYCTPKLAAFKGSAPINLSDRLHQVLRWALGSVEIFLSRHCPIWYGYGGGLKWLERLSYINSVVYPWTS
Source text: FIGS. 3A-3Q. […] FIG. 3A to FIG. 3G. […] FIG. 3A. Representative 5-day-old dark-grown Arabidopsis Col-0 seedlings grown on growth medium supplemented with different concentrations of ES20 or ES20-1. Scale bar: 1 cm. FIG. 3B. Quantification of hypocotyl length of 5-day-old dark-grown Arabidopsis Col-0 seedlings described in FIG. 3A. Data represent mean±SD (n=12 seedlings). FIG. 3C. Quantification of crystalline cellulose content in the hypocotyl cell walls of 7-day-old dark-grown Col-0 seedlings grown on growth medium supplemented with DMSO (0.1%), 1 μM ES20, or 1 μM ES20-1. Data represent mean±SD (n=3 biological replicates). FIG. 3D and FIG. 3E. […] FIG. 3D. Representative image of 6-day-old rice seedlings grown in sterile water supplemented with DMSO (0.1%), 20 μM ES20, or 20 μM ES20-1. Scale bar: 1 cm. FIG. 3E. Quantification of root length of rice seedlings as described in FIG. 3D. Data represent mean±SD (n=10 seedlings). FIG. 3F and FIG. 3G. […] FIG. 3F. Representative image of 6-day-old maize seedlings grown in sterile water supplemented with DMSO (0.1%), 20 μM ES20, or 20 μM ES20-1. Scale bar: 1 cm. FIG. 3G. Quantification of root length of maize seedlings as described in FIG. 3F. Data represent mean±SD (n=12 seedlings). […] FIG. 3H. Representative immunoblot from a DARTS assay of ES20-1 and YFP-AtCESA6. FIG. 3I. Quantitative analysis of the band intensity of YFP-AtCESA6 and SEC12 in ES20-1-treated samples divided by that of DMSO-treated samples in the DARTS assay described in FIG. 3H. Data represent mean±SD (n=6 biological replicates). FIGS. 3J-3N. […] FIG. 3J. Coomassie blue staining of purified GFP-tagged CESA6c with a His-SUMO tag (lane 2). FIGS. 3K, 3L, 3M, 3N. […] FIG. 3O. Coomassie blue staining of purified GFP-tagged CESA6c^P595S with a His-SUMO tag (lane 2). FIG. 3P and FIG. 3Q. […] Statistically significant differences in FIG. 3B were determined using one-way ANOVA followed by Tukey's multiple comparisons test. Lower-case letters represent ANOVA results for plants grown on medium with 0.1% DMSO, different concentrations of ES20 or ES20-1. […]

[4] = target: T2, GFP-CESA6c (central cytosolic domain of AtCESA6) (Arabidopsis thaliana, UniProt Q94JQ6); assay: MST assay with GFP-CESA6c; format: binding; details: for interaction with CESA6c: 100 nM GFP-CESA6c
T2 construct: made in house; host or cells: E. coli
Source text: To obtain the central cytosolic domain of AtCESA6 for the MST assay, we inserted the GFP coding sequence into the SacI and PstI restriction enzyme sites of the pRSF-Duet-1 vector (Huang et al., 2020). The GFP coding sequence was amplified from the pUBN-GFP-DEST vector. The sequence encoding the central cytosolic domain of CESA6 (CESA6c) was amplified from Col-0 cDNA and fused with GFP at the C-terminus. CESA6c construct was used as a template for creating CESA6c^P595S construct by site-directed mutagenesis. Protein purification was performed as previously described (Huang et al., 2020).
MST assays were carried out using a Monolith NT.115 (NanoTemper) machine at the Chemical Genomics Facility at Purdue University. […] The ES20-1 was dissolved in DMSO, and the final concentration of DMSO was 5% (vol/vol). MST standard capillaries were used to load the samples into the MST instrument. Triplicate reactions were performed for each test. The MST data were processed using MO. Affinity Analysis Version 2.3 software.

[5] = target: T3, GFP-CESA6c^P595S: GFP-tagged central cytoplasmic domain of AtCESA6 (cellulose synthase, CESA6) carrying missense mutation P595S, with a His-SUMO tag (Arabidopsis thaliana, UniProt Q94JQ6, P595S); assay: Microscale thermophoresis (MST) binding to purified GFP-tagged CESA6c^P595S (missense mutant)
T3 construct: We purified AtCESA6 central cytoplasmic domain carrying missense mutation P595S (CESA6c^P595S); His-SUMO; made in house; host or cells: E. coli
Source text: FIGS. 3A-3Q. […] FIG. 3A to FIG. 3G. […] FIG. 3A. Representative 5-day-old dark-grown Arabidopsis Col-0 seedlings grown on growth medium supplemented with different concentrations of ES20 or ES20-1. Scale bar: 1 cm. FIG. 3B. Quantification of hypocotyl length of 5-day-old dark-grown Arabidopsis Col-0 seedlings described in FIG. 3A. Data represent mean±SD (n=12 seedlings). FIG. 3C. Quantification of crystalline cellulose content in the hypocotyl cell walls of 7-day-old dark-grown Col-0 seedlings grown on growth medium supplemented with DMSO (0.1%), 1 μM ES20, or 1 μM ES20-1. Data represent mean±SD (n=3 biological replicates). FIG. 3D and FIG. 3E. […] FIG. 3D. Representative image of 6-day-old rice seedlings grown in sterile water supplemented with DMSO (0.1%), 20 μM ES20, or 20 μM ES20-1. Scale bar: 1 cm. FIG. 3E. Quantification of root length of rice seedlings as described in FIG. 3D. Data represent mean±SD (n=10 seedlings). FIG. 3F and FIG. 3G. […] FIG. 3F. […] Quantification of root length of maize seedlings as described in FIG. 3F. […] Quantitative analysis of the band intensity of YFP-AtCESA6 and SEC12 in ES20-1-treated samples divided by that of DMSO-treated samples in the DARTS assay described in FIG. 3H. […] Statistically significant differences in FIG. 3B were determined using one-way ANOVA followed by Tukey's multiple comparisons test. […]

Compound | sensitivity of es20r1-es20r15 mutants in growth [1] | sensitivity of transgenic lines with AtCESA6 catalytic site mutations [2] | Kd ([3]; FIG. 3N, GFP-CESA6c purified from E. coli, pH 7.5, 10 mM MgCl2, 0.05% Tween 20, triplicate) [µM] | interaction with CESA6c [4] | relative binding affinity to CESA6c ([4]; MST) | Kd ([3]; FIGS. 3K-3M, 100 nM GFP-CESA6c purified from E. coli, pH 7.5, 10 mM MgCl2, 0.05% Tween 20, 5% DMSO, triplicate) [µM] | Kd [5] [µM]
Cc1cccnc1NC(=S)NC(=O)c1cccc([N+](=O)[O-])c1C [ES20-9] | 14 out of 15 mutants except es20r13 show reduced sensitivity | Reduced sensitivity | 5.1 ± 4.8 | also interacts | slightly lower than ES20-1 |  | 
COc1ccc(C(=O)NC(=S)NNC(=O)c2ccccc2C)cc1 [ES20] |  |  |  |  |  | 9.7 ± 3.3 | 24.5 ± 26.9
CC1(C)S[C@@H]2[C@H](NC(=O)[C@H](N)c3ccccc3)C(=O)N2[C@H]1C(=O)O [ampicillin, reference compound] |  |  |  | did not interact |  |  | 
